Laboratory results from patent US9034825B2, “Treatment of myocardial injury with humanin analogs” (Albert Einstein College of Medicine of Yeshiva University, priority 2007, dated 2015).

Experiments:
Sprague-Dawley rats [1] = test: Peripheral IGFBP-3 infusion during hyperinsulinemic clamp; type: in vivo, rat
Protocol: To study the acute effects of an infusion of IGFBP-3, two groups of awake, unstressed, chronically catheterized Sprague-Dawley rats (˜300 g) were studied for 300 min (n=6 in each group) under hyperinsulinemic clamp (as previously described). From 120 min the rats received a primed continuous infusion of IGFBP-3 (0.06 mg/kg/hr) or saline (control) for an additional 3 h.
Plasma samples for determination of [^3H]glucose and [^3H] water specific activities were obtained at 10-min intervals during the basal and clamp periods. Steady state conditions for the plasma glucose concentration and specific activity were achieved within 90 min in all the studies. Plasma samples for determination of plasma IGF-1 (rat and human), IGFBP-3 (human IGFBP-3), GH, insulin, leptin, and FFA concentrations were collected at 30-min intervals throughout the study. All determinations were also performed on portal vein blood obtained at the end of the experiments. The total amount of blood drawn during the entire study for various assays is ˜3 cc. After separation of plasma (subsequently used for analysis), the red blood cells were reconstituted in saline and infused back into the animal.
Plasma glucose (sample volume 10 μl) was measured by the glucose oxidase method (Glucose Analyzer II, Beckman Instruments, Palo Alto, Calif.). Plasma [^3H]glucose radioactivity was measured in duplicates in the supernatants of Ba(OH)2 and ZnSO4 precipitates of plasma samples (20 μl) after evaporation to dryness to eliminate tritiated water. […] Plasma insulin (10 μl) was measured by RIA using rat insulin standard for basal studies and human insulin standard for insulin clamp studies. […] Plasma non-esterified fatty acid concentrations (5 μl) were determined by an enzymatic method with an automated kit according to the manufacturer's specification (Waco Pure Chemical Industries, Osaka, Japan). Rat IGF-1 (50 μl) was measured with a rIGF-1 ELISA kit (DSL, Webster, Tex.). Human IGF-1 (50 μl) was measured with an in-house kit developed in UCLA using a double monoclonal antibody ELISA with sensitivity of 0.1 ng/ml and an intra-assay and inter-assay coefficient of variations which are <6% and <8%, respectively, in the range from 1 to 6 ng/ml. Human IGFBP-3 (30 μl) was measured with an ELISA kit (DSL, Webster, Tex.). This kit reads both IGFBP-3 and NLS IGFBP-3. […] Serum levels of rat growth hormone were determined using an enzyme immunoassay (EIA) kit (ALPCO, Windham, N.H.) according to the manufacturer's instructions. […]
Under steady-state conditions for plasma glucose concentrations, the rate of glucose disappearance (Rd) equals the rate of glucose appearance (Ra). The latter was calculated as the ratio of the rate of infusion of [3-^3H]glucose (dpm/min) and the steady-state plasma [^3H]glucose specific activity (dpm/mg). […]

Sprague-Dawley rats [2] = test: Intravenous infusion of humanin or analogs during hyperinsulinemic clamp; type: in vivo, rat
Protocol: To study the acute effects of an infusion of IGFBP-3, two groups of awake, unstressed, chronically catheterized Sprague-Dawley rats (˜300 g) were studied for 300 min (n=3 in each group) under hyperinsulinemic clamp (as previously described). From 120 min the rats received a primed continuous infusion of humanin (0.375 mg/kg/hr) or saline (control) for an additional 2 h. Plasma samples for determination of [3H]glucose and [3H] water specific activities were obtained at 10-min intervals during the basal and clamp periods. Steady state conditions for the plasma glucose concentration and specific activity were achieved within 90 min in all the studies. Plasma samples for determination of HN, insulin and FFA concentrations were collected at 30-min intervals throughout the study. All determinations were also performed on portal vein blood obtained at the end of the experiments. The total amount of blood drawn during the entire study for various assays is ˜3 cc. After separation of plasma (subsequently used for analysis), the red blood cells were reconstituted in saline and infused back into the animal.
To determine if peripheral infusion of the humanin analog colivelin affects insulin action, saline or colivelin (one hundredth of the dose of humanin) was infused intravenously during hyperinsulinemic clamp to two groups of rats that were matched for body weight (˜300 gm), visceral fat (˜3.5 grams), basal glucose (˜135 mg % or 7 mM). Colivelin increased hepatic insulin sensitivity by 33% while peripheral glucose uptake was unchanged (FIG. 14).
A primed-continuous ICV infusion of HN, F6A-HN (total dose of 20 μg), STAT-3 inhibitor (75 pmol) (Buettner et al. 2006), or aCSF was initiated at t=0 and maintained for the remainder of the experiment (FIG. 15A). Pancreatic insulin-clamp studies or euglycemic-hyperinsulinemic clamps were performed in conscious, unrestrained, catheterized mice for last 120 minutes as described previously (Bahar et al. 2006, Muzumdar et al. 2006). In the intra-venous group, HN, F6A, Colivelin, and HNGF6A were infused intravenously and hyperinsulinemic clamps were performed as described previously (Loeb et al. 2005). Estimation of glucose, glucose fluxes, insulin, FFA were done as described previously (Loeb et al. 2005). HN measurements were performed by an in-house, ELISA utilizing affinity purified humanin antibodies that recognize both human and rat humanin and has a limit of detection of 0.1 ng/ml (Hwang, and Cohen personal communication).

[3] = 0.06 mg/kg/hr IV, hyperinsulinemic clamp
[4] = IV during hyperinsulinemic clamp, humanin 0.375 mg/kg/hr, colivelin one hundredth of the dose of humanin

Row | Molecule | human IGFBP-3 levels during the IGFBP-3 infusion (Sprague-Dawley rats [1]; 0.06 mg/kg/hr IV for 3 h) [ng/mL] | higher HGP compared to controls (Sprague-Dawley rats [1]; [3]) [%] | reduction in insulin stimulated glucose uptake compared to controls (Sprague-Dawley rats [1]; [3]) [%] | level in rat CSF after peripheral infusion, mean (Sprague-Dawley rats [1]; peripherally infused IGFBP-3) [ng/mL] | HGP / hepatic insulin action (Sprague-Dawley rats [2]; IV during hyperinsulinemic clamp, HN 0.375 mg/kg/hr, Colivelin 0.00375 mg/kg/hr) | increase in hepatic insulin sensitivity (Sprague-Dawley rats [2]; [4]) [%] | peripheral glucose uptake (Sprague-Dawley rats [2]; [4]) | levels in rat CSF after peripheral infusion, range (Sprague-Dawley rats [2]; peripherally infused humanin) [ng/mL]
1 | IGFBP-3: non glycosylated hIGFBP-3 (IGF binding protein-3), provided by Celtrix | 1960 ± 360 | 30 | ~17 | 7 | – | – | – | –
2 | CC[C@H](C)[C@H](NC(=O)[C@H](CCC(=O)O)NC(=O)[C@H](CO)NC(=O)[C@@H](NC(=O)[C@H](CC(C)C)NC(=O)[C@H](CC(C)C)NC(=O)[C@H](CC(C)C)NC(=O)[C@H](CC(C)C)NC(=O)[C@H](CS)NC(=O)[C@H](CO)NC(=O)[C@H](Cc1ccccc1)NC(=O)CNC(=O)[C@H](CCCNC(=N)N)NC(=O)[C@@H]1CCCN1C(=O)[C@H](C)NC(=O)[C@@H](N)CCSC)[C@@H](C)O)C(=O)N[C@@H](CC(=O)O)C(=O)N[C@@H](CC(C)C)C(=O)N1CCC[C@H]1C(=O)N[C@H](C(=O)N[C@@H](CCCCN)C(=O)N[C@@H](CCCNC(=N)N)C(=O)N[C@@H](CCCNC(=N)N)C(=O)N[C@@H](C)C(=O)O)C(C)C [Humanin, maprgfscll lltseidlpv krra] | – | – | – | – | trend towards decreased HGP | 80 | unchanged | 0 to 40
